In a melting point compilation (Tetko et al.):

**Q.** Which melting point does the source give for `CC(C)(C)c1nc(C(=O)O)cs1` here?
**A.** 126 to 128 °C

**Q.** Which melting point does the source give for `O=C(O)CCNS(=O)(=O)c1ccc2c(c1)CCCC2` here?
**A.** 106 to 110 °C

**Q.** With `Nc1ccccc1C(=O)NC1CCCC1` as the molecule, how does the melting point read?
**A.** 174 to 176 °C

**Q.** With `CCOC(=O)c1cc(Br)c(OC)c(S(=O)(=O)Cl)c1` as the molecule, how does the melting point read?
**A.** 62 to 64 °C

**Q.** Which melting point does the source give for `O=C(O)c1ccc(COc2ccccc2)cc1` here?
**A.** 214 to 216 °C

**Q.** Which melting point does the source give for `O=S(=O)(Cl)Cc1c(Cl)cccc1Cl` here?
**A.** 70 to 72 °C

**Q.** Which melting point does the source give for `O=S(=O)(Nc1cn[nH]c1)c1ccccc1F` here?
**A.** 186 to 188 °C

**Q.** For `Cc1cc(S)nc(C(C)C)n1`, which melting point is on record?
**A.** 160 to 164 °C

**Q.** For `O=C(CCl)NC(=O)Nc1ccccc1`, which melting point is on record?
**A.** 161 to 163 °C

**Q.** For `CCN(CC)S(=O)(=O)c1cccc(N)c1`, which melting point is on record?
**A.** 84 to 86 °C

**Q.** For `COC(=O)c1ccc2c(c1)S(=O)(=O)N=C(C)N2`, which melting point is on record?
**A.** 275 to 277 °C

**Q.** Which melting point does the source give for `O=c1ccccn1CCOc1ccc(Br)cc1` here?
**A.** 111 to 113 °C

**Q.** Which melting point does the source give for `CC(C)(C)c1ccc2oc(N)nc2c1` here?
**A.** 146 to 148 °C

**Q.** Which melting point does the source give for `Clc1ccc2nccnc2n1` here?
**A.** 148 to 150 °C

**Q.** With `COC(=O)c1cc([N+](=O)[O-])c(Br)cc1F` as the molecule, how does the melting point read?
**A.** 72 to 74 °C

**Q.** For `CN(c1ccccc1)c1ccccc1C(=O)O`, which melting point is on record?
**A.** 105 to 107 °C

**Q.** Which melting point does the source give for `Cc1ccc(C(=O)Nc2nc3ccc(N)cc3s2)s1` here?
**A.** 250 to 252 °C

**Q.** For `Nc1nc2c(s1)CCc1ccccc1-2`, which melting point is on record?
**A.** 58 to 66 °C

**Q.** With `CCCCC1NC(=O)NC1=O` (configuration not stated) as the molecule, how does the melting point read?
**A.** 139 to 141 °C

**Q.** With `CN1CCC(N(C)c2ccc(N)cc2)CC1` as the molecule, how does the melting point read?
**A.** 62 to 64 °C

**Q.** With `Nc1ccc(Oc2ccccc2)cn1` as the molecule, how does the melting point read?
**A.** 67 to 69 °C

**Q.** Which melting point does the source give for `CCCCOc1ccc(-c2cc(N)on2)cc1` here?
**A.** 112 to 114 °C

**Q.** Which melting point does the source give for `Nn1cnc2ccccc21` here?
**A.** 147 to 149 °C

**Q.** Which melting point does the source give for `O=C(O)c1nnn(-c2ccc(F)cc2)c1C1CC1` here?
**A.** 173 to 175 °C

**Q.** With `Cc1noc(C)c1S(=O)(=O)NC1(C(=O)O)CCCC1` as the molecule, how does the melting point read?
**A.** 176 to 178 °C

**Q.** With `Cn1c(N)nc2cc(F)ccc21` as the molecule, how does the melting point read?
**A.** 152 to 154 °C

**Q.** With `COc1ccc(-n2cc(O)c(C(=O)O)n2)cc1` as the molecule, how does the melting point read?
**A.** 234 to 236 °C

**Q.** Which melting point does the source give for `NNc1oc(-c2ccccc2)nc1C(N)=O` here?
**A.** 173 to 175 °C

**Q.** With `O=C(O)c1cccnc1SC(F)F` as the molecule, how does the melting point read?
**A.** 184 to 188 °C

**Q.** For `Cc1cc(O)cc(=O)n1CCC(=O)O`, which melting point is on record?
**A.** 172 to 174 °C

**Q.** With `CC(C)Nc1ccccn1` as the molecule, how does the melting point read?
**A.** 41 to 43 °C

**Q.** With `CN1C(=O)c2ccc(NC(=O)CCl)cc2C1=O` as the molecule, how does the melting point read?
**A.** 203 to 205 °C

**Q.** For `O=C(O)C1CC(=O)N(C2CC2)C1` (configuration not stated), which melting point is on record?
**A.** 93 to 95 °C

**Q.** With `CCOC(=O)C(N)c1cccc(O)c1` (configuration not stated) as the molecule, how does the melting point read?
**A.** 148 to 150 °C

**Q.** Which melting point does the source give for `O=C(O)c1ccc(I)c(Br)c1` here?
**A.** 243 to 245 °C

**Q.** For `Cc1nc(Cl)c2cc[nH]c2n1`, which melting point is on record?
**A.** 199 to 201 °C

**Q.** With `CCOc1cc(Br)c(CC#N)cc1OCC` as the molecule, how does the melting point read?
**A.** 68 to 70 °C

**Q.** With `CSc1ccc(CC(=O)O)cc1` as the molecule, how does the melting point read?
**A.** 97 to 98 °C

**Q.** With `CCn1c(S)nnc1CCC(N)=O` as the molecule, how does the melting point read?
**A.** 208 to 210 °C

**Q.** Which melting point does the source give for `CCc1cc(N)c2cc(N)ccc2n1` here?
**A.** 151 to 153 °C

**Q.** For `O=C(O)CNS(=O)(=O)c1c[nH]c2ncccc12`, which melting point is on record?
**A.** 273 to 275 °C

**Q.** With `FC(F)c1nc2c(Cl)cccc2[nH]1` as the molecule, how does the melting point read?
**A.** 125 to 127 °C

**Q.** For `Cc1ccc(NC(=O)CCl)cc1Cl`, which melting point is on record?
**A.** 73 to 75 °C

**Q.** Which melting point does the source give for `CCOC(=O)c1sc(NCCCC(=O)O)nc1-c1ccccc1` here?
**A.** 120 to 122 °C

**Q.** For `N#Cc1c(F)cccc1-n1ccc(N)n1`, which melting point is on record?
**A.** 134 to 136 °C

**Q.** Which melting point does the source give for `CC(=O)Nc1c(C)cccc1C(=O)O` here?
**A.** 204 to 206 °C

**Q.** With `N#Cc1cnc2ccccc2c1Cl` as the molecule, how does the melting point read?
**A.** 128 to 130 °C

**Q.** Which melting point does the source give for `NN=C(Nc1ccccc1)c1cc(F)cc(F)c1` here?
**A.** 99 to 101 °C

**Q.** With `Clc1cc(Cl)nc(C2CC2)n1` as the molecule, how does the melting point read?
**A.** 39 to 41 °C

**Q.** Which melting point does the source give for `CC1C(O)CC2CC1C2(C)C` (configuration not stated) here?
**A.** 51 to 53 °C

**Q.** For `CCCc1nnn[nH]1`, which melting point is on record?
**A.** 63 to 65 °C

**Q.** Which melting point does the source give for `O=c1cc(CO)nc2ccc(Br)cn12` here?
**A.** 204 to 206 °C

**Q.** With `Nc1nc2c(s1)COc1ccccc1-2` as the molecule, how does the melting point read?
**A.** 190 to 192 °C

**Q.** For `Cc1cc(S(=O)(=O)Cl)ccc1[N+](=O)[O-]`, which melting point is on record?
**A.** 48 to 50 °C

**Q.** For `COCC(C)NC(N)=O` (configuration not stated), which melting point is on record?
**A.** 73 to 75 °C

**Q.** Which melting point does the source give for `NC(Cc1nc2ccccc2[nH]1)=NO` here?
**A.** 138 to 140 °C

**Q.** Which melting point does the source give for `COc1ccc(Cc2nnc(N)s2)cc1` here?
**A.** 174 to 176 °C

**Q.** With `CCOC(=O)c1c(NC(N)=S)sc(C)c1C` as the molecule, how does the melting point read?
**A.** 207 to 209 °C

**Q.** Which melting point does the source give for `CCc1cccc(OCC(=O)O)c1` here?
**A.** 66 to 70 °C

**Q.** With `CC(C)C(Br)C(=O)N1CCc2ccccc21` (configuration not stated) as the molecule, how does the melting point read?
**A.** 111 to 113 °C

**Q.** With `Cc1ccc(-n2nc(C)c(NC(=O)OCC(F)(F)F)c2C)cc1` as the molecule, how does the melting point read?
**A.** 145 to 147 °C

**Q.** Which melting point does the source give for `Fc1cccc2c(CBr)csc12` here?
**A.** 74 to 76 °C

**Q.** Which melting point does the source give for `Cn1c(C(=O)O)cc2c(=O)n3ccccc3nc21` here?
**A.** 288 to 290 °C

**Q.** For `Cc1cnoc1C(=O)O`, which melting point is on record?
**A.** 133 to 135 °C

**Q.** With `Nc1cc(-c2ccccc2)nn1CCO` as the molecule, how does the melting point read?
**A.** 142 to 144 °C

**Q.** With `O=C(Nc1ccc(C(=O)O)c(O)c1)c1cc(F)cc(F)c1` as the molecule, how does the melting point read?
**A.** 269 to 271 °C

**Q.** For `c1ccc(-c2cncc(-c3ccccc3)n2)cc1`, which melting point is on record?
**A.** 86 to 88 °C

**Q.** Which melting point does the source give for `Nc1cccc(-c2c3c(=O)[nH][nH]c(=O)c3c3n2CCC3)c1` here?
**A.** 331 to 333 °C

**Q.** With `Cc1ccc(O)c(C(=O)N2CCC(C(=O)O)CC2)c1` as the molecule, how does the melting point read?
**A.** 184 to 186 °C

**Q.** Which melting point does the source give for `Cc1cccc(C(N)=O)n1` here?
**A.** 117 to 119 °C

**Q.** With `CCOC(=O)CNC(=O)NCC(=O)OCC` as the molecule, how does the melting point read?
**A.** 146 to 148 °C

**Q.** Which melting point does the source give for `CC(Cl)C(=O)NCCc1cccs1` (configuration not stated) here?
**A.** < 17 °C

**Q.** Which melting point does the source give for `Nc1c(Cl)ncnc1-n1cccn1` here?
**A.** 110 to 112 °C

**Q.** Which melting point does the source give for `CS(=O)(=O)OC1CCCC(S(C)(=O)=O)C1` (configuration not stated) here?
**A.** 119 to 121 °C

**Q.** Which melting point does the source give for `Cc1cc(C(=O)O)nn1-c1cccc(Cl)c1` here?
**A.** 190 to 192 °C

**Q.** Which melting point does the source give for `CCCCCOc1ccc2cc(C(=O)O)[nH]c2c1` here?
**A.** 162 to 164 °C

**Q.** Which melting point does the source give for `Nc1ccc(OCc2cccs2)cc1` here?
**A.** 61 to 63 °C

**Q.** With `Sc1n[nH]c(-c2cccnc2)n1` as the molecule, how does the melting point read?
**A.** 304 to 306 °C

**Q.** Which melting point does the source give for `CC(Cl)C(=O)Nc1ccc(C(F)(F)F)cc1` (configuration not stated) here?
**A.** 130 to 132 °C

**Q.** Which melting point does the source give for `Sc1nc(-c2ccccc2)c(-c2ccccc2)n1Cc1ccccc1` here?
**A.** 280 to 282 °C

**Q.** With `Cc1c(N)cccc1C(=O)N1CCSCC1` as the molecule, how does the melting point read?
**A.** 155 to 157 °C

**Q.** For `O=C(Nc1cccc(O)c1)c1ccccc1`, which melting point is on record?
**A.** 171 to 173 °C

**Q.** For `O=c1[nH]c2ccc(NCc3ccc(F)cc3)cc2[nH]1`, which melting point is on record?
**A.** 251 to 253 °C

**Q.** For `N#Cc1ccc(N2CCN(c3ccccn3)CC2)nc1`, which melting point is on record?
**A.** 165 to 167 °C

**Q.** With `COc1ccc(NS(=O)(=O)Cc2ccc(N)cc2)cc1` as the molecule, how does the melting point read?
**A.** 153 to 155 °C

**Q.** For `CN1CCCCC/C1=N\S(=O)(=O)c1cccc(N)c1`, which melting point is on record?
**A.** 172 to 174 °C

**Q.** With `Cc1cc(C(=O)O)ccc1-n1cncn1` as the molecule, how does the melting point read?
**A.** 242 to 244 °C

**Q.** With `CC(=O)c1ccc(C#N)c(F)c1` as the molecule, how does the melting point read?
**A.** 62 to 64 °C

**Q.** With `COc1ccc(-c2cncc(C(=O)O)c2)cc1` as the molecule, how does the melting point read?
**A.** 278 to 280 °C

**Q.** For `O=c1cnc2ccccc2[nH]1`, which melting point is on record?
**A.** 271 to 272 °C

**Q.** For `Nc1ccc(C2CC2)nn1`, which melting point is on record?
**A.** 135 to 137 °C

**Q.** With `CC(=O)c1cccc(OCc2cn3ccccc3n2)c1` as the molecule, how does the melting point read?
**A.** 77 to 79 °C

**Q.** Which melting point does the source give for `Cc1ccc(S(=O)(=O)NC(C)(C)C)cc1C(=O)O` here?
**A.** 180 to 182 °C

**Q.** With `CCOC(=O)c1csc(CC#N)n1` as the molecule, how does the melting point read?
**A.** 77 to 79 °C

**Q.** With `CCc1ccc(C(C)CC(=O)O)cc1` (configuration not stated) as the molecule, how does the melting point read?
**A.** 65 to 67 °C

**Q.** With `Cc1cc(C(=O)O)sc1C=O` as the molecule, how does the melting point read?
**A.** 204 to 206 °C

**Q.** For `O=[N+]([O-])c1cc(S(=O)(=O)Cl)c(Br)cc1F`, which melting point is on record?
**A.** 80 to 82 °C

**Q.** For `Cc1cc(C(=O)CCl)c(C)n1-c1ccc(Cl)c(C(F)(F)F)c1`, which melting point is on record?
**A.** 139 to 141 °C

**Q.** For `O=C(O)c1cccc(S(=O)(=O)N2CCCC2)c1`, which melting point is on record?
**A.** 157 to 159 °C

**Q.** For `Cc1cc(C(=O)O)cc(S(N)(=O)=O)c1C`, which melting point is on record?
**A.** 266 to 268 °C

**Q.** For `CN(C(=O)C1CC1)c1ccccc1C(=O)O`, which melting point is on record?
**A.** 166 to 168 °C

**Q.** For `CCCOc1c(Cl)cc(C#N)cc1OC`, which melting point is on record?
**A.** 31 to 33 °C
